According to publication PMC3518039 (Journal of medicinal chemistry, 2012):

Columns and labels:
Fusarium solani Cutinase = Fusarium solani Cutinase (Fusarium vanettenii, UniProt P00590); type: biochemical, Fusarium solani pisi
[1] = molecular target: Mycobacterium tuberculosis LipY (triacylglycerol lipase) (Mycobacterium tuberculosis, UniProt I6Y2J4); type: biochemical
[2] = molecular target: Mycobacterium tuberculosis Rv0183 (monoglyceride lipase) (Mycobacterium tuberculosis, UniProt O07427); type: biochemical
LipY = molecular target: T1, LipY (Mycobacterium tuberculosis, UniProt I6Y2J4); type: binding
T1 sequence (I6Y2J4 1-437): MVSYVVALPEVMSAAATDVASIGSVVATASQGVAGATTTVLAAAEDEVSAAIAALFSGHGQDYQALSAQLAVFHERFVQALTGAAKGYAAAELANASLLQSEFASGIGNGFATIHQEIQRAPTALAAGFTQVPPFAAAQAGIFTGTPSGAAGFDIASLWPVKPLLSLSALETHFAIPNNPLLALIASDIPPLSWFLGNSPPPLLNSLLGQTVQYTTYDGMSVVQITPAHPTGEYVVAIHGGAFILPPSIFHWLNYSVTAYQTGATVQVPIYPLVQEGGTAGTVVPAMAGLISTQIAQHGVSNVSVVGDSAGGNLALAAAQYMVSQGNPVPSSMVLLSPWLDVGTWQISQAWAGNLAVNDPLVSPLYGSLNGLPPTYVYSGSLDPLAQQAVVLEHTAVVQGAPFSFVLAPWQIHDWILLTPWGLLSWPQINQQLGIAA

Mycobacterium tuberculosis Rv0183 (monoglyceride lipase), sequence (O07427 whole entry, looked up): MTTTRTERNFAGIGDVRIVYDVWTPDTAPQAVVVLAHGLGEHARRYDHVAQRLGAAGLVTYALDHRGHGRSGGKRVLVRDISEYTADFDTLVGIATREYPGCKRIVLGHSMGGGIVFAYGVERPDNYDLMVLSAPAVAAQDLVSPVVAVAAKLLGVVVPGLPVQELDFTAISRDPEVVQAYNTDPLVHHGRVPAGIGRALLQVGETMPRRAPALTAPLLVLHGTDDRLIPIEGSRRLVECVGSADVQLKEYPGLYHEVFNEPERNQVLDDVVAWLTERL
Fusarium solani Cutinase, sequence (P00590 17-230): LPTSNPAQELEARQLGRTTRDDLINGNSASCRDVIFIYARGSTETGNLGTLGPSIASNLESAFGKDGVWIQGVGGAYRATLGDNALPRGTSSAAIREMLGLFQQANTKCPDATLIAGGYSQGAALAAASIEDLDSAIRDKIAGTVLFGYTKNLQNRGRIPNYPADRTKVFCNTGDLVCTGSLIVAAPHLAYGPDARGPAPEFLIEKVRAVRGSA

Compound | DI (Diastereoselectivity Index between trans-(α) and cis-(β) isomers), Cutinase (Fusarium solani Cutinase) [%] | DI (Diastereoselectivity Index between trans-(α) and cis-(β) isomers), Rv0183 [2] [%] | DI (Diastereoselectivity Index between trans-(α) and cis-(β) isomers), LipY [1] [%] | further results
CO[P@]1(=O)OC[C@H]2COC(=O)C2=C(C)O1 [Compound 1, Cyclophostin] |  |  |  | half-inactivation time (t1/2), Cutinase (Fusarium solani Cutinase): 10.8 s; residual lipase activity (plateau), Cutinase (Fusarium solani Cutinase): around 6.0%; xI50 (inhibitor molar excess leading to 50% lipase inhibition), LipY [1]: > 100
CCCCCCCCCCCCCCCCCCC1CCP(=O)(OC)OC(C)=C1C(=O)OC (racemic) [10(α), (±) Methyl 2-methoxy-7-methyl-5-octadecyl-2,3,4,5-tetrahydro-1,2-oxaphosphepine-6-carboxylate 2-oxide] | 72.1 | > 93.0 | 81.3 | 
CCCCCCCCCCCCCCCCOP1(=O)CCCC(C(=O)OC)=C(C)O1 (stereo not shown) [Compound 11, Methyl 7-methyl-2-(hexadecyloxy)-2,3,4,5-tetrahydro-1,2-oxaphosphepine-6-carboxylate 2-oxide] |  |  |  | Mass modifications (inhibited minus native lipase), LipY (LipY): +443.8 Da; half-inactivation time (t1/2), LipY [1]: 9.6 s
CCCCCC1CCP(=O)(OC)OC(C)=C1C(=O)OC (racemic) [6(α), (±) Methyl 2-methoxy-7-methyl-5-pentyl-2,3,4,5-tetrahydro-1,2-oxaphosphepine-6-carboxylate 2-oxide] | 89.7 | 16.7 |  | xI50 (inhibitor molar excess leading to 50% lipase inhibition), LipY [1]: > 100
CCCCCC1CCP(=O)(OC)OC(C)=C1C(=O)OC (racemic) [6(β), (±) Methyl 2-methoxy-7-methyl-5-pentyl-2,3,4,5-tetrahydro-1,2-oxaphosphepine-6-carboxylate 2-oxide] | 89.7 | 16.7 |  | xI50 (inhibitor molar excess leading to 50% lipase inhibition), LipY [1]: > 100
CCCCCCCCCCCCCCCCC1CCP(=O)(OC)OC(C)=C1C(=O)OC (racemic) [9(β), (±) Methyl 5-hexadecyl-2-methoxy-7-methyl-2,3,4,5-tetrahydro-1,2-oxaphosphepine - 6-carboxylate 2-oxide] | 27.2 | > 97.0 | 70.5 | 
CCCCCCCCCCCCCCCCCCC1CCP(=O)(OC)OC(C)=C1C(=O)OC (racemic) [10(β), (±) Methyl 2-methoxy-7-methyl-5-octadecyl-2,3,4,5-tetrahydro-1,2-oxaphosphepine-6-carboxylate 2-oxide] | 72.1 | > 93.0 | 81.3 | 
CCCCCCCCCCC1CCP(=O)(OC)OC(C)=C1C(=O)OC (racemic) [Compound 7(β), (±) Methyl 5-decyl-2-methoxy-7-methyl-2,3,4,5-tetrahydro-1,2-oxaphosphepine-6-carboxylate 2-oxide] | 76.2 | 51.9 | 80.3 | half-inactivation time (t1/2), Rv0183 [2]: 86.4 s; residual lipase activity (plateau), Rv0183 [2]: around 6.0%
CCCCCCCCCCCCC1CCP(=O)(OC)OC(C)=C1C(=O)OC (racemic) [8(α), (±) Methyl 5-dodecyl-2-methoxy-7-methyl-2,3,4,5-tetrahydro-1,2-oxaphosphepine-6-carboxylate 2-oxide] | 29.0 | 36.3 | 28.0 | 
CCCCCCCCCCCCCCCCC1CCP(=O)(OC)OC(C)=C1C(=O)OC (racemic) [9(α), (±) Methyl 5-hexadecyl-2-methoxy-7-methyl-2,3,4,5-tetrahydro-1,2-oxaphosphepine - 6-carboxylate 2-oxide] | 27.2 | > 97.0 | 70.5 | 
CCCCCCCCCCCCC1CCP(=O)(OC)OC(C)=C1C(=O)OC (racemic) [8(β), (±) Methyl 5-dodecyl-2-methoxy-7-methyl-2,3,4,5-tetrahydro-1,2-oxaphosphepine-6-carboxylate 2-oxide] | 29.0 | 36.3 | 28.0 | 
CCCCCCCCCCC1CCP(=O)(OC)OC(C)=C1C(=O)OC (racemic) [7(α), (±) Methyl 5-decyl-2-methoxy-7-methyl-2,3,4,5-tetrahydro-1,2-oxaphosphepine-6-carboxylate 2-oxide] | 76.2 | 51.9 | 80.3 | 
